Key:
[1] = tested on: inner ear spheres made from Math1-nGFP mice; test: Hair cell differentiation from utricular spheres of neonatal Math1-nGFP reporter mice; assay type: cell-based, mouse; details: compared with DAPT, L-685458, MDL28170; normalized to DMSO
Protocol: The utricles and cochleae of 1- to 3-d-postnatal mice of both sexes were dissected, and after careful removal of the nerve trunk and mesenchymal tissues, were trypsinized and dissociated. Dissociated cells were centrifuged, and the pellet was resuspended and filtered through a 70 μm cell strainer (BD Biosciences Discovery Labware) in DMEM/F12 medium with N2/B27 supplement, EGF (20 ng/ml), IGF1 (50 ng/ml), bFGF (10 ng/ml), and heparan sulfate (50 ng/ml) (Sigma). The single cells were cultured in nonadherent Petri dishes (Greiner Bio-One) to initiate clonal growth of spheres (49). Spheres that formed after 2-3 d in culture were passaged every 4-6 d. […]
Cell counting for spheres was performed with MetaMorph software. The cell number was determined from DAPI- or Hoechst-positive nuclei. […] For explants, inner hair cells, outer hair cells, and supporting cells in the outer hair cell region were counted on cochlear whole mounts. […] High-power images of the full-length cochlea or cochlear explant cultures were assembled and analyzed in PhotoShop CS4 (Adobe). ImageJ software (NIH) was used to measure the total length of cochlear whole mounts and the length of individual counted segments. The total number of inner hair cells, outer hair cells, and supporting cells in the outer hair cell region was counted in each of four cochlear segments of 1200-1400 μm (apical, mid-apical, mid-basal, and basal). […]

[2] = tested on: deafened cochlea of Sox2-CreER; mT/mG mice; test: In vivo lineage tracing of Sox2-positive supporting cells after round window administration; set-up: species or system mouse; details: one month after LY411575 treatment, left ear; none in control ears
Text: For the experiments using inner ear spheres, C57BL/6 (Jackson Labs) or Math1-nGFP reporter mouse (19) (a gift from Jane Johnson, University of Texas) of both sexes were used. To create organ of Corti explants with ablated hair cells, Mos-iCsp3 mice (20) were crossed with Pou4f3-Cre mice (6) (a gift from Douglas Vetter, Tufts University). For all in vivo experiments, we used 4-week-old Cre reporter line, mT/mG (Jackson Labs), crossed to a Sox2-CreER mouse (47) (a gift from Konrad Hochedlinger, Mass General Hospital). After genotyping, double transgenic animals were used for lineage tracing. We used young adult wild-type littermates of the mT/mG; Sox2-CreER mice to prevent strain effects in the response to noise, which are known to vary depending on background (22, 48). Mice were genotyped by PCR. All protocols were approved by the Institutional Animal Care and Use Committee of Massachusetts Eye and Ear Infirmary or the by the ethics committee of Keio University Union on Laboratory Animal Medicine, in compliance with the Public Health Service policy on humane care and use of laboratory animals.
4-week-old mice were exposed free-field, awake and unrestrained, in a small reverberant chamber (22). Acoustic trauma was produced by a 2 h exposure to an 8-16 kHz octave band noise presented at 116 dB SPL. […]

With `C[C@H](NC(=O)[C@@H](O)c1cc(F)cc(F)c1)C(=O)N[C@@H]1C(=O)N(C)c2ccccc2-c2ccccc21` [LY411575, N-2((2S)-2-(3,5-difluorophenyl)-2-hydroxyethanoyl)-N1-((7S)-5-methyl-6-oxo-6,7-dihydro-5H-dibenzo[b,d]azepin-7-yl)-l-alaninamide] the “potency for hair cell induction (nGFP-positive cells to DAPI-positive cells) among the four γ-secretase inhibitors” value [1] was “highest potency” and the “myosin VIIa-positive cells also expressing GFP (Sox2 lineage)” value [2] was “numerous”.

— US12161647B2, “Treating hearing loss” (Massachusetts Eye and Ear Infirmary, priority 2012, dated 2024)
